The nature of series [1]: Gel test (vial inversion). In kind it is physicochemical. On the procedure:
A weighed amount of solid was dissolved in 0.5 or 1 ml of the solvent in a closed 2.0 ml vial using a heating gun or a heating block and subsequently slowly cooled to room temperature by standing in the air. Gelation was determined by turning the vial upside down and gentle shaking. If no flow of the mass was observed, the mass was defined to be a gel. Alternatively, a weighed amount of solid was dissolved in 1 mL of solvent by the addition of acid or base. The subsequent addition of base or acid then gave gelation. Alternatively, a weighed amount of solid was dissolved in a small amount of solvent. The subsequent addition of a large amount of non-solvent then gave gelation. Alternatively, the solution of gelator/thickener was added to the non-solvent, resulting in gelation. Alternatively, a weighed amount of solid was mixed with 1 mL of solvent by sonication. After stopping the sonication, gelation occurred. Alternatively a weighed amount of solid was mixed with 1 mL of solvent by brief vortexing after which gelation occurred. Alternatively a weighed amount of solid was mixed with 1 mL of solvent after which gelation occurred.

A further series deals with α-chymotrypsin. Nature of the series: α-chymotrypsin-induced cleavage followed by fluorescence detection of released 6-AQ. In kind it is biochemical. As to conditions: for Km / Vmax: from Lineweaver-Burke and Eadie-Hofstee plots, for 12 only points where V still increased; for Cleavage (6-AQ formation) by α-chymotrypsin: substrate 7.54 mM (12 as gel, 39 as solution), α-chymotrypsin 40 mM as printed. The text has this:
In order to investigate the enzymatic cleavage of a gelator-drug conjugate, we selected the enzyme α-chymotrypsin, which is capable of cleaving amide bonds at the C═O terminus of L-phenylalanine-based substrates like compound 12 (CHex(AmPhe-6AQ)(AmEtOEtOH)2), resulting here in the release of the fluorogenic “model drug” 6-aminoquinoline (6-AQ). This system allows easy monitoring of the cleavage kinetics owing to the fact that the excitation and emission maxima for the amide and amino form of this compound are adequately separated (amide form: λex=315 nm, λem=370 nm, amine form: λex=339 nm, λem=550 nm).
Gelator 12 was dissolved in a small amount of DMSO (100 μL), whereas α-chymotrypsin was dissolved in a buffer solution (Tris-HCl, 0.1 M, pH 7.75, 900 μL). […] In order to determine the effect of gelation on the enzymatic cleavage, the water-soluble, non-gelating, model substrate 39 was synthesized with a structure similar to that of gelator 12.
Fluorescence experiments were carried out in which the α-chymotrypsin-induced cleavage of compounds 12 and 39 was followed through the detection of 6-AQ.
Legend to FIG. 2 (from bottom to top): Trace a: gel of gelator 12 (0.5 wt %=7.54 mM); trace b: gel of gelator 12 (0.5 wt %=7.54 mM)+α-chymotrypsin ([…]); trace c: gel of gelator 12 (0.5 wt %=7.54 mM)+compound 39 (7.54 mM)+α-chymotrypsin (40 μM); trace d: solution of compound 39 (7.54 mM)+α-chymotrypsin (40 mM)
Performing the cleavage experiments for both 12 and 39 at different substrate concentrations and plotting the initial rates as a function of the substrate concentration (i.e., 12 or 39) results in the points plotted in FIG. 3. […] The initial rates for gelator 12, however, increase up to a certain point, after which they remain the same, even at much higher concentrations. From the corresponding Lineweaver-Burke and Eadie-Hofstee plots, values for Vmax and Km could be obtained for both compounds. […] From these points, the following values were calculated. […] Using these values for Vmax and Km, the theoretical curves could be plotted for both compounds. For compound 39, the experimentally determined points fitted very well on the curve. […] Below this concentration, a sample of 12 exists as a solution. So, even though the molecules in a gel are in constant equilibrium with those in solution and the overall gelator concentration may increase well above the CGC (thus bringing about gelation), the concentration of gelator in solution can never exceed the CGC. The fact that the initial rate for 12 no longer increases once the substrate (i.e., gelator) concentration exceeds the CGC, proves that only the gelator molecules in solution can be cleaved by the enzyme.

Series [2] can be described thus: TEM particle size of a compound of interest included in gels of gelator 12. Particulars: for Crystal size, reference without gelator: DMSO/H2O 100 μL/900 μL. In kind it is physicochemical. How it is done: Transmission Electron Microscopy Measurements
A gel was prepared following one of the procedures described above. A small amount of the gel was carefully deposited on a carbon-coated copper grid, using a spatula. The excess solution was blotted with a filter paper, leaving a thin sample film. The samples were examined using a JEOL 1200EX (80-100 kV) and pictures were taken of representative parts. The samples were all prepared in duplo.
To a solution containing 4 mg (6.0×10^−3 mmol) of gelator 12 (CHex(AmPhe-6AQ)(AmEtOEtOH)2) and 1.22 mg (6.0×10^−3 mmol) of pyrene in 100 μL of DMSO, 900 μL of distilled water were quickly added.
To determine the stability in time of pyrene particles in a gel, samples were prepared as described in the previous paragraph and examined with TEM after 7 days, 18 days, 1 month and 2 months. As reference, samples containing only pyrene in DMSO/H2O (100 μL/900 μL) were also prepared. Moreover, to determine the effect of the gelator in solution, i.e., not in the gel, samples containing 4 mg (6.0×10^−3 mmol) of gelator 12 (CHex(AmPhe-6AQ)(AmEtOEtOH)2), 1.22 mg (6.0×10^−3 mmol) of pyrene, 100 μL of DMSO and 900 μL of 1N HCl were prepared. […] All samples were kept at room temperature, in the dark.
To a solution containing 1.96 mg (2.9×10^−3 mmol) of gelator 12 (CHex(AmPhe-6AQ)(AmEtOEtOH)2) and 1.0 mg (2.9×10^−3 mmol) of danazol in 50 μL of DMSO, 950 μL of distilled water were quickly added. […] In a reference sample consisting only of danazol in 100 μL of DMSO and 900 μL of distilled water, rod-shaped danazol particles are 0.5-10 μm wide and 15-53 μm long. […]

Series [3] is described as follows: Cryo-TEM and small angle x-ray diffraction of hydrogel fibers. It counts as physicochemical. On the procedure: Cryo-transmission Electron Microscopy Measurements
A gel was prepared following one of the procedures described above. A small amount of the gel was carefully deposited on a bare copper grid, using a spatula. The excess solution was blotted with a filter paper, leaving a thin sample film. The grid was subsequently plunged into liquid ethane for vitrification. The vitrified specimens were transferred to a Gatan model 626 cryostage and observed in a Philips CM 120 electron microscope operating at 120 kV. The images were recorded under low-dose conditions at about −170° C. The samples were all prepared in duplo.
Presumably, the lack of (C3-)symmetry prevents the aggregation of the fibers into large bundles from taking place, and leads to the highly uniform and very low fiber diameter, the latter in turn leading to clear gel.
The left-side image is a low magnification, the right-side image a high magnification (white bar at the upper left-hand quarter in the right-side image corresponds to 4.5 nm). […] The high uniformity of the fiber thicknesses can be clearly observed in the close-up image on the right.

[4] abbreviates: PEG 400 (printed PEG for compound 20).

In the case of `O=C(O)CCCC(=O)N[C@@H](Cc1ccccc1)C(=O)Nc1ccc2ncccc2c1` [Compound 39, reference compound], in series [1], the Solubility in water result is “water-soluble”. Moreover, in series [1] (water), the Gelation behaviour result is listed as “non-gelating”. Besides, in the series with α-chymotrypsin, the Michaelis constant (Km) (in general, the substrate concentration at which the rate is half of its maximum) came out at 4.9 mM; the maximal velocity (Vmax) – broadly, the top rate of the reaction or transport when substrate is in excess – was determined as 22.3 µmol/min; the “Cleavage (6-AQ formation) by α-chymotrypsin” value is reported as “more readily cleaved”.
On to `C#C[C@]1(O)CC[C@H]2[C@@H]3CCC4=Cc5oncc5C[C@]4(C)[C@H]3CC[C@@]21C` [danazol], for which, in series [2] (DMSO 100 μL + water 900 μL), the “Length of rod-shaped particles, reference without gelator” value is 15-53 μm and the “Width of rod-shaped particles, reference without gelator” value is recorded as 0.5-10 μm. Besides, the “Presence of rod-shaped particles” value in series [2] (freeze-dried gel of 12, 5:1) is listed as “no rod-shaped particles were present”. In series [2] (gel of 12, 1:1, some particles), the “Length of rod-shaped particles in gel” value stood at 9 μm and the “Width of rod-shaped particles in gel” value worked out at 0.7 μm. Moreover, in series [2] (gel of 12, 2:1), the “Presence of rod-shaped particles” value is reported as “no rod-shaped danazol particles are present”, the “Size of some particles in gel” value was 2 μm and the “Size of very few particles in gel” value stood at 10 μm. For the same compound, in series [2] (gel of 12, 5:1), the “Presence of rod-shaped particles” value is on record as “no rod-shaped particles are present” and the “Size of some particles in gel” value amounted to 400 nm. Further, the “Average particle size in gel” value in series [2] (gel of 12, gelator:danazol 1:1, DMSO/water 50 μL/950 μL) is 140-700 nm. Besides, the “Average particle size in gel” value in series [2] (gel of 12, gelator:danazol 2:1) is on record as 28 nm. Besides, the “Average particle size in gel” value in series [2] (gel of 12, gelator:danazol 5:1) turned out to be 14 nm.
For `c1cc2ccc3cccc4ccc(c1)c2c34` [pyrene], the “Crystal size, reference without gelator” value in series [2] (after 2 months) is reported as 2-12 μm; in series [2] (after 7 days, 18 days or 1 month), 0.4-9 μm. Besides, in series [2] (gel of 12, 1:1, DMSO/H2O, after 1 month), the “Crystal size in gel” value is recorded as around 150 nm. Also, the “Particle size in gel” value is listed as 37-185 nm in series [2] (gel of 12, 1:1, DMSO/H2O, after 7 days, room temperature, dark) and 30-190 nm in series [2] (gel of 12, 1:1, DMSO/H2O, after 18 days). Moreover, the “Crystal size, gelator in solution” value in series [2] (with 12 1:1 in DMSO/1N HCl 100 μL/900 μL (not gelled), after 7 days) was 0.2-3 μm. Also, the “Size of larger crystals, gelator in solution” value in series [2] (with 12 1:1 in DMSO/1N HCl (not gelled), after 1 month) amounted to 6 μm.
For the compound `O=C(N[C@@H](CO)C(=O)Nc1ccc2ccccc2c1)[C@@H]1C[C@H](C(=O)N[C@@H](CO)C(=O)Nc2ccc3ccccc3c2)C[C@H](C(=O)OCc2ccccc2)C1` [Compound 35, CHex(AmSerAmβNA)2(COOBn)], the Gel test result in series [1] (DMSO/CH2Cl2 mixtures), in series [1] (DMSO/EtOH mixtures), in series [1] (DMSO/MeCN mixtures), in series [1] (DMSO/MeOH mixtures), in series [1] (DMSO/toluene mixtures) and in series [1] (EtOH) was “gel” in each case. The Gel test entry in series [1] (MeCN) is recorded as “gel”.
With `CCCC[C@H](NC(=O)[C@@H]1C[C@H](C(=O)O)C[C@H](C(=O)N[C@@H](CCCC)C(=O)OC)C1)C(=O)OC` [Compound 31, CHex(AmNleOMe)2(COOH)], the Gel test entry in series [1] (EtOH) and in series [1] (setting [4]) was “gel” in each case.
On to `NC(=O)CC[C@H](NC(=O)[C@@H]1C[C@H](C(=O)O)C[C@H](C(=O)N[C@@H](CCC(N)=O)C(=O)Nc2ccc3ccccc3c2)C1)C(=O)Nc1ccc2ccccc2c1` [Compound 38, CHex(AmGlnAmβNA)2(COOH)], for which the Gel test result in series [1] (H2O, concentration not given) is listed as “gel”.
Consider `O=C(NCCOCCO)[C@@H]1C[C@H](C(=O)NCCOCCO)C[C@H](C(=O)N[C@@H](Cc2ccccc2)C(=O)Nc2ccc3ncccc3c2)C1` [Compound 12, CHex(AmPhe-6AQ)(AmEtOEtOH)2], for which the Gel fiber thickness entry in series [3] is on record as “about 4.5 nm”. In addition, the Gel test entry in series [1] (0.3 mg/mL in H2O or PBS) is listed as “clear gel”; in series [1] (0.5 mg/mL in H2O/DMSO (19:1)), “clear gel”; in series [1] (0.6 mg/mL in H2O/EtOH (19:1)) it was “clear gel”; in series [1] (25 mg/ml in EtOH) it was “turbid gel”. The Gel formation result in series [1] (4 mg with pyrene in DMSO 100 μL + 1N HCl 900 μL) is “does not gelate”; in series [1] (DMSO 100 μL + α-chymotrypsin in Tris-HCl 0.1 M pH 7.75 900 μL, rapid addition) it was “clear, homogeneous gel”. Also, the “Critical gelator concentration (CGC)” value in series [1] (H2O:DMSO=9:1) amounted to 1.5 mM. Moreover, the Km in the series on α-chymotrypsin worked out at 1.8 mM. The Vmax with α-chymotrypsin turned out to be 4.1 µmol/min. In addition, the “Cleavage (6-AQ formation) in the absence of α-chymotrypsin” value in the series with α-chymotrypsin (gel 0.5 wt % = 7.54 mM, fluorescence at 550 nm) is reported as “no cleavage”. Also, the “experimentally determined Vmax” value in the series with α-chymotrypsin (plateau of initial rate above the CGC) was 1.8 µmol/min. Also, the “Cleavage (6-AQ formation) by α-chymotrypsin” value with α-chymotrypsin is “minor cleavage”.
As to `O=C(N[C@@H](Cc1ccccc1)C(=O)NC1CCCCC1)[C@H]1C[C@@H](C(=O)OCc2ccccc2)C[C@@H](C(=O)OCc2ccccc2)C1` [Compound 16, CHex(OBn)2(AmPheAmCHex)], the Gel test entry in series [1] (EtOH), in series [1] (MeCN), in series [1] (setting [4]) and in series [1] (olive oil) was “gel” each time.
Regarding `CSCC[C@H](NC(=O)[C@@H]1C[C@H](C(=O)NCCOCCO)C[C@H](C(=O)NCCOCCO)C1)C(=O)Nc1ccc2ccccc2c1` [Compound 4, CHex(AmMet-AmβNA)(AmEtOEtOH)2], the Gel test result in series [1] (1 mg/mL in H2O) and in series [1] (3 mg/mL in MeOH) was “clear gel” in each case.

Values taken from patent US7534915B2, “Non-symmetrical gelling agent” (Applied Nanosystems B.V., priority 2003, dated 2009).
